In patent publication US20240025906A1 (NEURON23, INC., priority 2022, published 2024):
Where a name gives a salt, the structure may show the parent alone. Read-outs that look alike come from different tables or passages of the source.

Legend:
[1] = tested on: JAK1/TYK2 pSTAT5 (Tyr694/699) in THP-1 cell line; assay: IFNa-stimulated JAK1/TYK2 pSTAT5 (Tyr694/699) inhibition cellular assay, AlphaLISA; assay type: cell-based; conditions: THP-1 cells, AlphaLISA (Assay B)
Procedure, shortened: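 THP-1 cells (2e4/well in HBSS) were preincubated with compound (8 points, 6-fold steps from 10000 nM final) for 1 h at 37 °C, then stimulated with IFNa (added at 100 ng/mL) for 30 min. Lysate pSTAT5 was read by AlphaLISA at 615 nm. IC50 came from a 4-parameter fit with bottom 0 and Hill −1.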

[2] = target: T1, TYK2 JH2 (Homo sapiens, UniProt P29597); assay: TYK2 JH2 binding assay (KINOMEscan KdELECT competitive binding); conditions: TYK2 JH2 domain, KINOMEscan KdELECT (Assay A)
T1 construct: purchased DiscoverX (KINOMEscan KdELECT service); host or cells: E. coli BL21-derived (T7 phage display) or HEK-293
Procedure, shortened: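 JH2-domain fragment, expressed as T7 phage tag in BL21-derived E. coli or DNA-tagged from HEK-293, competed with test compound against bead-immobilized biotinylated ligand in binding buffer (0.9% DMSO). 1 h shaking at room temperature; bound kinase eluted with 0.5 μM free ligand and quantified by qPCR. Kd from 11-point 3-fold dilutions.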

[3] = Homo sapiens, IFNa-stimulated pSTAT5 (Tyr694/699), read-out: Cellular_THP1_IFNa-pSTATS_TYK2
[4] = read-out: Biochemical TYK2_DiscoverX_JH2_BND_Kd
[5] = Homo sapiens, IFNa-stimulated, read-out: Cellular THP1_IFNa-pSTATS_IC50
[6] = read-out: Biochemical TYK2_JH2_Kd

T1 sequence (P29597 589-875 limits assumed): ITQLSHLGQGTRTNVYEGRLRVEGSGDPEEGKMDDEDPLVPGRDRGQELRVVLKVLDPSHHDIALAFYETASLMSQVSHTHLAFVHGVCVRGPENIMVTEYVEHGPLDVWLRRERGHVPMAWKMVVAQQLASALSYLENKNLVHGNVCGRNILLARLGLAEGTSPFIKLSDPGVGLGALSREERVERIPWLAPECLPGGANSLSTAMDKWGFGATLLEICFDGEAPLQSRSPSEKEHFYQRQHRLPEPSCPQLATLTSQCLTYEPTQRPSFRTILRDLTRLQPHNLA

Row | IC50 [1, 3] | Kd [2, 4] | IC50 ([1]; IFNa-stimulated pSTAT5 (Tyr694/699), read-out: Cellular_THP1_IFNa-pSTATS_TYK2) | IC50 [1, 5] | Kd [2, 6] | SMILES
1 | ≤ 500 nM | ≤ 100 nM | – | – | – | CNc1ncc(-c2nc3cc(N4CCOCC4)ccc3o2)c2cc(NC(=O)[C@@H]3C[C@@H]3C(F)(F)F)ncc12 (single isomer, unassigned) [Example 1066]
2 | – | ≤ 100 nM | ≤ 500 nM | – | – | CNc1ncc(-c2nc3cc(N4CCOCC4)ccc3o2)c2cc(NC(=O)[C@@H]3C[C@@H]3C(F)(F)F)ncc12 (single isomer, unassigned) [Example 1067]
3 | ≤ 500 nM | ≤ 100 nM | – | – | – | CNc1ncc(-c2nc3cc(N4CCOCC4)ccc3o2)c2cc(NC(=O)[C@@H]3C[C@@H]3C(F)F)ncc12 (single isomer, unassigned) [Example 1069]
4 | ≤ 500 nM | ≤ 100 nM | – | – | – | CNc1ncc(C#Cc2ccc(N3CCOCC3)cc2)c2cc(NC(=O)[C@@H]3C[C@@H]3C(F)F)ncc12 (single isomer, unassigned) [Example 1074]
5 | ≤ 500 nM | ≤ 100 nM | – | – | – | CNc1ncc(C#Cc2ccc(N3CCOCC3)cc2)c2cc(NC(=O)[C@H]3C[C@H]3C(F)F)ncc12 (single isomer, unassigned) [Example 1075]
6 | ≤ 500 nM | ≤ 100 nM | – | – | – | CC[C@@H]1CN(c2ccc3nc(-c4cnc(NC)c5cnc(NC(=O)[C@H]6C[C@H]6C)cc45)nn3c2)CCO1 (single isomer, unassigned) [Example 1078]
7 | ≤ 500 nM | ≤ 100 nM | – | – | – | CC[C@H]1CN(c2ccc3nc(-c4cnc(NC)c5cnc(NC(=O)[C@H]6C[C@H]6C)cc45)nn3c2)CCO1 (single isomer, unassigned) [Example 1079]
8 | ≤ 500 nM | ≤ 100 nM | – | – | – | CNc1ncc(-c2nc3ccc(N4CCOCC4)cn3n2)c2cc(NC(=O)[C@H]3CC3(F)F)ncc12 (single isomer, unassigned) [Example 1141]
9 | – | – | – | > 500 nM | ≤ 100 nM | CNc1ncc(-c2ccccc2)c2cc(NC(=O)C3CC3)ncc12 [Example 1, N-(8-(methylamino)-5-phenyl-2,7-naphthyridin-3-yl)cyclopropanecarboxamide]
10 | – | – | – | > 500 nM | 100 to 1000 nM | CNc1nccc2cc(NC(=O)C3CC3)ncc12 [Example 2, N-(8-(methylamino)-2,7-naphthyridin-3-yl)cyclopropanecarboxamide]
11 | – | – | – | > 500 nM | ≤ 100 nM | CNc1ncc(Br)c2cc(NC(=O)C3CC3)ncc12 [Example 3, N-(5-bromo-8-(methylamino)-2,7-naphthyridin-3-yl)cyclopropanecarboxamide]
12 | – | – | – | > 500 nM | ≤ 100 nM | CNc1ncc(-c2ccccn2)c2cc(NC(=O)C3CC3)ncc12 [Example 4, N-(8-(methylamino)-5-(pyridin-2-yl)-2,7-naphthyridin-3-yl)cyclopropanecarboxamide]
13 | – | – | – | > 500 nM | 100 to 1000 nM | CNc1ncc(-c2ncccc2OC)c2cc(NC(=O)C3CC3)ncc12 [Example 5, N-(5-(3-methoxypyridin-2-yl)-8-(methylamino)-2,7-naphthyridin-3-yl)cyclopropanecarboxamide]
14 | – | – | – | > 500 nM | ≤ 100 nM | CNc1ncc(-c2ccnn2C)c2cc(NC(=O)C3CC3)ncc12 [Example 6, N-(5-(1-methyl-1H-pyrazol-5-yl)-8-(methylamino)-2,7-naphthyridin-3-yl)cyclopropanecarboxamide]
15 | – | – | – | > 500 nM | 100 to 1000 nM | CNc1ncc(-c2ccccc2OC)c2cc(NC(=O)C3CC3)ncc12 [Example 7, N-(5-(2-methoxyphenyl)-8-(methylamino)-2,7-naphthyridin-3-yl)cyclopropanecarboxamide]
16 | – | – | – | > 500 nM | ≤ 100 nM | CNc1ncc(-c2ccncc2OC)c2cc(NC(=O)C3CC3)ncc12 [Example 8, N-(5-(3-methoxypyridin-4-yl)-8-(methylamino)-2,7-naphthyridin-3-yl)cyclopropanecarboxamide]
17 | – | – | – | > 500 nM | ≤ 100 nM | CNc1ncc(-c2ccncc2)c2cc(NC(=O)C3CC3)ncc12 [Example 9]
18 | – | – | – | > 500 nM | ≤ 100 nM | CNc1ncc(-c2cc(C)no2)c2cc(NC(=O)C3CC3)ncc12 [Example 10, N-(8-(methylamino)-5-(3-methylisoxazol-5-yl)-2,7-naphthyridin-3-yl)cyclopropanecarboxamide]
19 | – | – | – | > 500 nM | 100 to 1000 nM | CCc1ccccc1-c1cnc(NC)c2cnc(NC(=O)C3CC3)cc12 [Example 11, N-(5-(2-ethylphenyl)-8-(methylamino)-2,7-naphthyridin-3-yl)cyclopropanecarboxamide]
20 | – | – | – | > 500 nM | ≤ 100 nM | CNc1ncc(-c2cccc(OC)c2)c2cc(NC(=O)C3CC3)ncc12 [Example 12, N-(5-(3-methoxyphenyl)-8-(methylamino)-2,7-naphthyridin-3-yl)cyclopropanecarboxamide]
21 | – | – | – | > 500 nM | ≤ 100 nM | CNc1ncc(-c2ccc(OC)cc2)c2cc(NC(=O)C3CC3)ncc12 [Example 13, N-(5-(4-methoxyphenyl)-8-(methylamino)-2,7-naphthyridin-3-yl)cyclopropanecarboxamide formate]
22 | – | – | – | > 500 nM | ≤ 100 nM | CNc1ncc(-c2cccnc2)c2cc(NC(=O)C3CC3)ncc12 [Example 14, N-(8-(methylamino)-5-(pyridin-3-yl)-2,7-naphthyridin-3-yl)cyclopropanecarboxamide]
23 | – | – | – | > 500 nM | ≤ 100 nM | CNc1ncc(-c2ccccc2Cl)c2cc(NC(=O)C3CC3)ncc12 [Example 15, N-(5-(2-chlorophenyl)-8-(methylamino)-2,7-naphthyridin-3-yl)cyclopropanecarboxamide]
24 | – | – | – | > 500 nM | ≤ 100 nM | CNc1ncc(-c2ccc(Cl)cc2)c2cc(NC(=O)C3CC3)ncc12 [Example 16, N-(5-(4-chlorophenyl)-8-(methylamino)-2,7-naphthyridin-3-yl)cyclopropanecarboxamide]
25 | – | – | – | > 500 nM | ≤ 100 nM | CNc1ncc(-c2ccccc2F)c2cc(NC(=O)C3CC3)ncc12 [Example 17, N-(5-(2-fluorophenyl)-8-(methylamino)-2,7-naphthyridin-3-yl)cyclopropanecarboxamide]
26 | – | – | – | > 500 nM | ≤ 100 nM | CNc1ncc(-c2ccc(F)cc2)c2cc(NC(=O)C3CC3)ncc12 [Example 18, N-(5-(4-fluorophenyl)-8-(methylamino)-2,7-naphthyridin-3-yl)cyclopropanecarboxamide]
27 | – | – | – | > 500 nM | ≤ 100 nM | CCn1nccc1-c1cnc(NC)c2cnc(NC(=O)C3CC3)cc12 [Example 19, N-(5-(1-ethyl-1H-pyrazol-5-yl)-8-(methylamino)-2,7-naphthyridin-3-yl)cyclopropanecarboxamide]
28 | – | – | – | > 500 nM | ≤ 100 nM | CNc1ncc(-c2ccnn2Cc2ccccc2)c2cc(NC(=O)C3CC3)ncc12 [Example 20, N-(5-(1-benzyl-1H-pyrazol-5-yl)-8-(methylamino)-2,7-naphthyridin-3-yl)cyclopropanecarboxamide]
29 | – | – | – | > 500 nM | ≤ 100 nM | CNc1ncc(-c2ccc3c(c2)OCO3)c2cc(NC(=O)C3CC3)ncc12 [Example 21, N-(5-(benzo[d][1,3]dioxol-5-yl)-8-(methylamino)-2,7-naphthyridin-3-yl)cyclopropanecarboxamide]
30 | – | – | – | > 500 nM | ≤ 100 nM | CNc1ncc(-c2ccc(C)s2)c2cc(NC(=O)C3CC3)ncc12 [Example 22, N-(8-(methylamino)-5-(5-methylthiophen-2-yl)-2,7-naphthyridin-3-yl)cyclopropanecarboxamide]
